Source: article PMC8537386, “The Specificity and Broad Multitarget Properties of Ligands for the Free Fatty Acid Receptors FFA3/GPR41 and FFA2/GPR43 and the Related Hydroxycarboxylic Acid Receptor HCA2/GPR109A” (Pharmaceuticals, 2021)

Legend:
TNF-α mRNA = assay: LPS-induced TNF-α gene expression in THP-1 macrophages (qRT-PCR); assay type: cell-based, human; details: 4 h LPS, LPS-treated cells = 100%; for decrease in TNF-α mRNA: compound 50 µg/mL
Description: (§1) The human THP-1 monocyte cell line was obtained from ATCC (American Type Culture Collection). […] The THP-1 monocytes were stimulated to differentiate into macrophages with phorbol 12-myristate 13-acetate (PMA) (50 ng/mL) for 24 h. The medium was exchanged for PMA-free medium for 48 h before the cells were used for experiments.
(§2) The total RNA was isolated from THP-1 cells using TRIzol reagent, according to the manufacturer’s protocol. First-strand cDNA was synthesized from 2 µg of RNA using oligo(dT) primers with RevertAid H Minus kit (Thermo Fisher Scientific, USA). The qRT-PCR procedure was performed using ABsolute Blue QPCR SYBR Green Master Mix reagent (Thermo Fisher Scientific, USA) with a ViiA7 real-time PCR detection system (Applied Biosystems, USA). The primer pairs that were employed for HCA2/GPR109A were forward 5′-[…]-3′ and reverse 5′-[…]-3′; for FFA2/GPR43 were forward 5′-[…]-3′ and reverse 5′-[…]-3′; for FFA3/GPR41 were forward 5′-[…]-3′ and reverse 5′-[…]-3′; for IL-6 were forward 5′-[…]-3′ and reverse 5′-[…]-3′; for MCP-1 were forward 5′-[…]-3′ and reverse 5′-[…]-3′; for TNF-α were forward 5′-[…]-3′ and reverse 5′-[…]-3′; for RPS29 were forward 5′-[…]-3′ and reverse 5′- […]-3′. The mRNA levels were quantified and normalized to the levels of the reference gene RPS29 using the 2^−ΔΔCt method and presented as relative expression compared to the values for untreated cells.

MCP-1 mRNA = assay: LPS-induced MCP-1 gene expression in THP-1 macrophages (qRT-PCR); assay type: cell-based, human; details: 4 h LPS, LPS-treated cells = 100%; for decrease in MCP-1 mRNA: compound 50 µg/mL
Description: as §1, §2

FFA3/GPR41 mRNA = assay: FFA3/GPR41 gene expression in LPS-stimulated THP-1 macrophages (qRT-PCR); assay type: cell-based, human; details: 4 h LPS 1 µg/mL; for LPS-stimulated FFA3/GPR41 mRNA level: compound 50 µM, p < 0.05
Description: as §1, §2

FFA2/GPR43 = biological target: T1, FFA2/GPR43 (Homo sapiens, UniProt O15552); assay: forskolin-stimulated cAMP accumulation assay, Flp-In-293 cells stably expressing FFA2/GPR43; assay type: cell-based; details: for inhibition at 50 µM: 50 µM compound, NA = not active up to 50 µM
T1 construct: host or cells: Flp-In-293
T1 sequence (O15552 1-330): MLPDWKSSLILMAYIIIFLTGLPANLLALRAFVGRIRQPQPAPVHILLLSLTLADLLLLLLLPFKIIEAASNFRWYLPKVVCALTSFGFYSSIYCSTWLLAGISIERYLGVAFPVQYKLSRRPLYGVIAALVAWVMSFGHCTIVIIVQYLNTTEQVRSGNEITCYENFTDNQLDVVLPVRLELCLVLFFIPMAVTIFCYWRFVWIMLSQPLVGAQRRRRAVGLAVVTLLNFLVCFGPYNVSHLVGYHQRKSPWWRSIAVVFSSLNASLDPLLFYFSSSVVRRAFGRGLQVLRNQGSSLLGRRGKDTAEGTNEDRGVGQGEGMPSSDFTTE
Description: (§3) All of our synthesized compounds were evaluated in forskolin-stimulated cAMP accumulation assay using Flp-In-293 cells stably expressing human FFA2/GPR43, FFA3/GPR41 or HCA2/GPR109A receptors (Table 1, Table 2 and Table 3; Figure 2).
(§4) Flp-In-293 cells (Invitrogen) were used for the generation of stable FFA3/GPR41 and FFA2/GRP43 cell lines using Flp-In System (Invitrogen). Flp-In-293 cells were cultured in Dulbecco’s modified Eagle medium (DMEM) supplemented with 10% fetal bovine serum (FBS), penicillin (100 U/mL), streptomycin (100 µg/mL), and zeocin (100 µg/mL). The cells were co-transfected with pOG44 (Invitrogen) and pcDNA5/FRT-FFA3 or pcDNA5/FRT-FFA2 using TurboFect (Thermo Fisher Scientific), and stable cell lines were generated according to the manufacturer’s protocol (Invitrogen). After transfection, the cells were cultured under selection pressure due to the presence of hygromycin B (100 µg/mL) in DMEM supplemented with 10% FBS, penicillin, and streptomycin.
(§5) For cAMP assay, the cells were distributed into a 384-well white microplate at a density of 12,000 cells per well and stimulated with the indicated compounds in the presence of 3 μM forskolin for 30 min. […] The cells and the compounds were diluted in 1X phosphate-buffered saline (PBS) supplemented with 0.5 mM of 3-isobutyl-1-methylxanthine. The intracellular cAMP levels were measured using a Lance cAMP kit according to the manufacturer’s instructions. The plates were read on a PerkinElmer Victor 3V multilabel plate reader. The cAMP was quantitated in each sample by comparison to a calibration curve of known cAMP quantities provided in the kit.

HCA2/GPR109A = biological target: T2, HCA2/GPR109A (Homo sapiens, UniProt Q8TDS4); assay: forskolin-stimulated cAMP accumulation assay, Flp-In-293 cells stably expressing HCA2/GPR109A; assay type: cell-based; details: for Emax / EC50: mean ± SD; for Emax: read-out: HCA2/GPR109A Emax, maximal inhibition of forskolin-stimulated cAMP (converted); for EC50: inhibition of forskolin-stimulated cAMP, read-out: HCA2/GPR109A EC50
T2 construct: expressed in transfected cells; host or cells: Flp-In-293
Description: as §3
Flp-In-293 cells stably expressing human HCA2/GPR109A receptor (laboratory collection) were grown in DMEM medium supplemented with 10% FBS, penicillin, streptomycin, and hygromycin B (100 µg/mL). All cells were cultured at 37 °C in a humidified incubator containing 5% CO2.
as §5

IL-6 mRNA = assay: LPS-induced IL-6 gene expression in THP-1 macrophages (qRT-PCR); assay type: cell-based, human; details: 4 h LPS, LPS-treated cells = 100%; for decrease in IL-6 mRNA: compound 50 µg/mL
Description: as §1, §2

[1] = cyclic voltammetry, electrooxidation potential; assay type: physicochemical; details: vs. Ag/Ag+; acetonitrile, glassy carbon electrode
Description: Cyclic voltammetry experiments were carried out using a PARSTAT 2273 electrochemical system. A stationary glassy carbon disk electrode (d = 0.8 mm) served as the working electrode, while the counter electrode was a Pt wire. The oxidation potentials were measured relative to an Ag/Ag^+ reference electrode. Acetonitrile was dried over P2O5 and distilled; the distillate was stored over CaH2 and redistilled immediately prior to use. Recrystallized tetrabutylammonium tetrafluoroborate (TBATFB) was used as a supporting electrolyte at 0.1 M concentration.

HCA2/GPR109A mRNA = assay: HCA2/GPR109A gene expression in LPS-stimulated THP-1 macrophages (qRT-PCR); assay type: cell-based, human; details: compound 50 µM; 4 h LPS 1 µg/mL; p < 0.05
Description: as §1, §2

FFA3/GPR41 = biological target: T3, FFA3/GPR41 (Homo sapiens, UniProt O14843); assay: forskolin-stimulated cAMP accumulation assay, Flp-In-293 cells stably expressing FFA3/GPR41; assay type: cell-based; details: for Emax / EC50: mean ± SD; for Emax: read-out: FFA3/GPR41 Emax, maximal inhibition of forskolin-stimulated cAMP (converted); for EC50: inhibition of forskolin-stimulated cAMP, absence of propionate, read-out: FFA3/GPR41 EC50
T3 construct: host or cells: Flp-In-293
T3 sequence (O14843 1-346): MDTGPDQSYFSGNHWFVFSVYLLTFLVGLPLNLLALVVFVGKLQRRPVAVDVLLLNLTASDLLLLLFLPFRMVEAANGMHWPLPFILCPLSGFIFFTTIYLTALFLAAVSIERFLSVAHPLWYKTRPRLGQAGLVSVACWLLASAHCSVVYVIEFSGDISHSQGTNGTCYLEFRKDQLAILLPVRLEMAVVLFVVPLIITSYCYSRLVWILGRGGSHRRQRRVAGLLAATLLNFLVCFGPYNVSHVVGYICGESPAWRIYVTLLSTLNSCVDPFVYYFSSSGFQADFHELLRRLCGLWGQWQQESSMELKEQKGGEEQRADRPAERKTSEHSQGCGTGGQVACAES
Description: as §3, §4, §5

FFA2/GPR43 mRNA = assay: FFA2/GPR43 gene expression in LPS-stimulated THP-1 macrophages (qRT-PCR); assay type: cell-based, human; details: 4 h LPS 1 µg/mL
Description: as §1, §2

T2 sequence (Q8TDS4 whole entry): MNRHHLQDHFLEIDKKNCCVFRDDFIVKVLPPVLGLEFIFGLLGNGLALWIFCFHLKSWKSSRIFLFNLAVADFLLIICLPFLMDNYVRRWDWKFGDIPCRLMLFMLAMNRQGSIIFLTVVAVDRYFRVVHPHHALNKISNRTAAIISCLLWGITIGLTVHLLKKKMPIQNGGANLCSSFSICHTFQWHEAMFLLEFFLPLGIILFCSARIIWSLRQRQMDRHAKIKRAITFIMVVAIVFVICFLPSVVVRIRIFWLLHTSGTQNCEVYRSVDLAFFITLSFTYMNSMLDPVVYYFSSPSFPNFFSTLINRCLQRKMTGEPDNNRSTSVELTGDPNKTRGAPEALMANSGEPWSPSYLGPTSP

| SMILES | decrease in TNF-α mRNA (TNF-α mRNA) [%] | decrease in MCP-1 mRNA (MCP-1 mRNA) [%] | LPS-stimulated FFA3/GPR41 mRNA level (FFA3/GPR41 mRNA) | Emax (HCA2/GPR109A; HCA2) [%] | EC50 (HCA2/GPR109A) [µM] | decrease in IL-6 mRNA (IL-6 mRNA) [%] | El.ox. pot. (single value) [1] [V] | LPS-stimulated HCA2/GPR109A mRNA level (HCA2/GPR109A mRNA) | Emax (FFA3/GPR41; Flp-In-293) [%] | EC50 (FFA3/GPR41) [nM] | inhibition at 50 µM (FFA2/GPR43; Flp-In-293) [%] | also measured |
| --- | --- | --- | --- | --- | --- | --- | --- | --- | --- | --- | --- | --- |
| O=c1[nH]c(=O)c2c(CCCCCl)cc(=O)oc2[nH]1 [2-7, 5-(4-Chlorobutyl)-1H-pyrano[2,3-d]pyrimidine-2,4,7-trione] | 48 ± 11 | 50 ± 5 | significantly increased | 98 | 0.054 ± 0.006 | 74 ± 3 | 1.94 | significantly reduced | 89 | 220 ± 30 |  | Emax (FFA2/GPR43; Flp-In-293, mean ± SD, read-out: FFA2/GPR43 Emax, maximal inhibition of forskolin-stimulated cAMP (converted)): 88%; EC50 (FFA2/GPR43; inhibition of forskolin-stimulated cAMP, mean ± SD): 380 ± 60 nM |
| O=C(CSc1nc(=O)c2c(CCCCCl)cc(=O)oc2[nH]1)OCc1ccccc1 [3-3] | 53 ± 9 | 49 ± 5 | significantly increased | 85 | 17 ± 3 | 65 ± 2 |  | significantly reduced |  |  | 66 ± 6 | inhibition at 50 µM (FFA3/GPR41; Flp-In-293, 50 µM compound, NA = not active up to 50 µM): 72 ± 2% |
| CC(Sc1nc(=O)c2c(CCCCCl)cc(=O)oc2[nH]1)C(=O)c1ccc(OCc2ccccc2)cc1 (centres unmarked) [3-4, 2-[2-(4-Benzyloxy-phenyl)-1-methyl-2-oxo-ethylsulfanyl]-5-(4-chlorobutyl)-1H-pyrano[2,3-d]pyrimidine-4,7-dione] | 58 ± 10 | 41 ± 1 |  |  |  | 61 ± 1 | 1.98 | significantly reduced | 95 | 380 ± 100 | 49 ± 2 | inhibition at 50 µM (HCA2/GPR109A; HCA2, 50 µM compound, NA = not active up to 50 µM): 33 ± 16% |
| O=C(O)c1cccnc1 [niacin, reference compound] |  |  |  |  |  |  |  |  |  |  |  | downregulation of LPS-induced TNF-α mRNA (TNF-α mRNA; niacin 50 µM): 32 ± 3%; downregulation of LPS-induced MCP-1 mRNA (MCP-1 mRNA; niacin 50 µM): 29 ± 1%; LPS-stimulated FFA3/GPR41 gene expression (FFA3/GPR41 mRNA; niacin 50 µM): did not affect; LPS-stimulated FFA2/GPR43 gene expression (FFA2/GPR43 mRNA; niacin 50 µM): did not affect |
| CCC(=O)O [propionate, reference compound] |  |  |  |  |  |  |  |  |  |  |  | downregulation of LPS-induced TNF-α mRNA (TNF-α mRNA; propionate 1 mM): 42 ± 4%; downregulation of LPS-induced MCP-1 mRNA (MCP-1 mRNA; propionate 1 mM): 33 ± 2%; LPS-upregulated FFA2/GPR43 gene expression (FFA2/GPR43 mRNA; propionate 1 mM, not statistically significant (p > 0.05)): slightly increased; downregulation of LPS-induced IL-6 mRNA (IL-6 mRNA; propionate 1 mM): 66 ± 5% |
